From ChEMBL document CHEMBL1201862, “PubChem BioAssay data set” (2004)
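96-well plates; 48 h exposure; 5 concentrations. Endpoints by linear interpolation between flanking doses. Not reached: highest tested concentration assigned. GI50 = concentration required for 50% inhibition of growth.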 The source made the active and inactive calls. Cut-off read from the data, not from the text of the source: active = GI50 up to about 1.1 µM and inactive = higher.

Experiments:
Assay in all cases: growth of human tumour cells (NCI), 48 h
KM12 = tested on: KM12
SK-MEL-5 = tested on: SK-MEL-5
SK-MEL-2 = tested on: SK-MEL-2
BT-549 = tested on: BT-549
SW-620 = tested on: SW-620
OVCAR-5 = tested on: OVCAR-5
SF-295 = tested on: SF-295
MDA-N = tested on: MDA-N
HOP-92 = tested on: HOP-92
UACC-257 = tested on: UACC-257
SK-OV-3 = tested on: SK-OV-3
OVCAR-3 = tested on: OVCAR-3
T47D = tested on: T47D
SF-539 = tested on: SF-539
PC-3 = tested on: PC-3
SR = tested on: SR
Malme-3M = tested on: Malme-3M
NCI-H522 = tested on: NCI-H522
RPMI-8226 = tested on: RPMI-8226
K562 = tested on: K562

Compound	GI50 (KM12)	GI50 (SK-MEL-5)	GI50 (SK-MEL-2)	GI50 (BT-549)	GI50 (SW-620)	GI50 (OVCAR-5)	GI50 (SF-295)	GI50 (MDA-N)	GI50 (HOP-92)	GI50 (UACC-257)	GI50 (SK-OV-3)	GI50 (OVCAR-3)	GI50 (T47D)	GI50 (SF-539)	GI50 (PC-3)	GI50 (SR)	GI50 (Malme-3M)	GI50 (NCI-H522)	GI50 (RPMI-8226)	GI50 (K562)
O=C(Cc1ccccc1)NN1C(=O)/C(=C\c2ccccc2)S/C1=N\c1ccccc1	> 100 µM (inactive)	> 100 µM (inactive)	> 100 µM (inactive)	> 100 µM (inactive)	> 100 µM (inactive)	> 100 µM (inactive)	> 100 µM (inactive)	> 100 µM (inactive)	> 100 µM (inactive)	> 100 µM (inactive)	> 100 µM (inactive)	> 100 µM (inactive)	> 100 µM (inactive)	> 100 µM (inactive)	–	–	–	–	–	–
CCN(CC)Cc1cc(Nc2c3ccccc3nc3c4ccccc4n(C)c23)cc(CN(CC)CC)c1O	6.58 µM (inactive)	1.65 µM (inactive)	2.67 µM (inactive)	2 µM (inactive)	3.12 µM (inactive)	6.84 µM (inactive)	5.35 µM (inactive)	–	4.6 µM (inactive)	2.73 µM (inactive)	14.4 µM (inactive)	2.43 µM (inactive)	3.18 µM (inactive)	3.18 µM (inactive)	2.42 µM (inactive)	2.82 µM (inactive)	2.74 µM (inactive)	1.75 µM (inactive)	2.1 µM (inactive)	2.76 µM (inactive)
COC(=O)c1ccc(NCC2=CC(=O)C=CC2=O)cc1	13.6 µM (inactive)	18.5 µM (inactive)	15.3 µM (inactive)	13.6 µM (inactive)	3.75 µM (inactive)	16.7 µM (inactive)	–	11.4 µM (inactive)	3.43 µM (inactive)	12.4 µM (inactive)	16.7 µM (inactive)	1.79 µM (inactive)	–	10.9 µM (inactive)	12.6 µM (inactive)	5.26 µM (inactive)	4.55 µM (inactive)	1.7 µM (inactive)	2.59 µM (inactive)	2.69 µM (inactive)
COc1ccc(/C=C2\CCC(CNc3ccc(Br)cc3)C2=O)cc1 (centres undefined)	29.1 µM (inactive)	80.9 µM (inactive)	–	88.7 µM (inactive)	67.3 µM (inactive)	> 100 µM (inactive)	> 100 µM (inactive)	–	> 100 µM (inactive)	> 100 µM (inactive)	> 100 µM (inactive)	> 100 µM (inactive)	84.7 µM (inactive)	–	> 100 µM (inactive)	24.2 µM (inactive)	> 100 µM (inactive)	> 10 µM (inactive)	5.87 µM (inactive)	20 µM (inactive)
COc1cc(Nc2nc3cc(C(F)(F)F)ccc3nc2C(=O)O)cc(OC)c1OC	41.5 µM (inactive)	49 µM (inactive)	19.1 µM (inactive)	34.9 µM (inactive)	71.9 µM (inactive)	> 100 µM (inactive)	27.2 µM (inactive)	33.3 µM (inactive)	29.6 µM (inactive)	> 100 µM (inactive)	–	29.7 µM (inactive)	22.5 µM (inactive)	43.6 µM (inactive)	–	–	54.1 µM (inactive)	30.9 µM (inactive)	–	–
COc1cc(Nc2c(C#N)[n+]([O-])c3ccccc3[n+]2[O-])cc(OC)c1OC	37.7 µM (inactive)	19.6 µM (inactive)	39.1 µM (inactive)	97.5 µM (inactive)	29.9 µM (inactive)	22.3 µM (inactive)	46.3 µM (inactive)	–	28.1 µM (inactive)	27.4 µM (inactive)	15.7 µM (inactive)	25.6 µM (inactive)	14.8 µM (inactive)	33.6 µM (inactive)	33.3 µM (inactive)	–	35.2 µM (inactive)	29.1 µM (inactive)	> 100 µM (inactive)	39.1 µM (inactive)
Cc1cccc2c(N)c3cccc(C(=O)NCCN(C)C)c3nc12	–	0.114 µM (active)	0.231 µM (active)	1.41 µM (inactive)	< 0.0225 µM (active)	0.0935 µM (active)	< 0.0298 µM (active)	–	–	0.193 µM (active)	0.113 µM (active)	0.125 µM (active)	0.0378 µM (active)	–	0.0643 µM (active)	< 0.01 µM (active)	0.173 µM (active)	< 0.0176 µM (active)	< 0.021 µM (active)	0.0162 µM (active)
CCCCNc1c(CN)cnc2cc(Cl)ccc12	15.5 µM (inactive)	15.1 µM (inactive)	17.8 µM (inactive)	16.6 µM (inactive)	16.3 µM (inactive)	16.6 µM (inactive)	14 µM (inactive)	16.1 µM (inactive)	15.9 µM (inactive)	13 µM (inactive)	14.3 µM (inactive)	15 µM (inactive)	19.2 µM (inactive)	–	16.8 µM (inactive)	–	19.2 µM (inactive)	18.8 µM (inactive)	16.4 µM (inactive)	13.9 µM (inactive)
Cc1ccc2[nH]c3[nH]c(=O)[nH]c(=O)c3c2c1	43.6 µM (inactive)	> 100 µM (inactive)	> 100 µM (inactive)	> 100 µM (inactive)	> 100 µM (inactive)	> 100 µM (inactive)	58.3 µM (inactive)	> 100 µM (inactive)	> 100 µM (inactive)	> 100 µM (inactive)	> 100 µM (inactive)	> 100 µM (inactive)	> 100 µM (inactive)	> 100 µM (inactive)	–	> 10 µM (inactive)	> 100 µM (inactive)	> 100 µM (inactive)	> 100 µM (inactive)	> 100 µM (inactive)
COCOc1cc(OC)ccc1C=O	34 µM (inactive)	27.4 µM (inactive)	34 µM (inactive)	58.1 µM (inactive)	32.8 µM (inactive)	> 100 µM (inactive)	39 µM (inactive)	5.58 µM (inactive)	–	28.6 µM (inactive)	62.4 µM (inactive)	20.9 µM (inactive)	44.7 µM (inactive)	21.5 µM (inactive)	21.8 µM (inactive)	11.3 µM (inactive)	11.6 µM (inactive)	27.6 µM (inactive)	–	23.9 µM (inactive)
CSc1c(C(=O)Nc2ccc(C)cc2)c(N)n(N)c(=O)c1C#N	> 100 µM (inactive)	> 100 µM (inactive)	> 100 µM (inactive)	> 100 µM (inactive)	> 100 µM (inactive)	> 100 µM (inactive)	–	> 100 µM (inactive)	–	> 100 µM (inactive)	> 100 µM (inactive)	> 100 µM (inactive)	> 100 µM (inactive)	> 100 µM (inactive)	> 100 µM (inactive)	> 100 µM (inactive)	> 100 µM (inactive)	> 100 µM (inactive)	> 100 µM (inactive)	> 100 µM (inactive)
COC(=O)c1c(C)cccc1C1CN=NC12Cc1cc(C)cc(C)c1C2=O (centres undefined)	31.4 µM (inactive)	19.2 µM (inactive)	27.7 µM (inactive)	29.7 µM (inactive)	48.5 µM (inactive)	48 µM (inactive)	35.1 µM (inactive)	37.6 µM (inactive)	20.4 µM (inactive)	22.9 µM (inactive)	38.5 µM (inactive)	28.9 µM (inactive)	30.2 µM (inactive)	41.3 µM (inactive)	30.1 µM (inactive)	–	26.2 µM (inactive)	9.46 µM (inactive)	–	30.2 µM (inactive)
c1ccc2c(c1)ccn1ccc3c4ccccc4nc-3c21	0.346 µM (active)	0.454 µM (active)	1.17 µM (inactive)	1.43 µM (inactive)	0.202 µM (active)	0.475 µM (active)	0.426 µM (active)	–	1.41 µM (inactive)	1.06 µM (active)	0.566 µM (active)	0.918 µM (active)	0.71 µM (active)	0.369 µM (active)	0.384 µM (active)	< 0.01 µM (active)	0.644 µM (active)	0.3 µM (active)	0.195 µM (active)	0.194 µM (active)
O=C(CC(=O)N(C(=O)/C=C\c1ccccc1)c1ccc(Cl)cc1)N1N=C(c2ccccc2)C(/N=N/c2cccc([N+](=O)[O-])c2)C1=O (centres undefined)	1.76 µM (inactive)	–	–	12.3 µM (inactive)	2.32 µM (inactive)	48.9 µM (inactive)	5.25 µM (inactive)	7.05 µM (inactive)	51.4 µM (inactive)	–	6.32 µM (inactive)	2.36 µM (inactive)	4.2 µM (inactive)	6.07 µM (inactive)	3.23 µM (inactive)	1.57 µM (inactive)	11.3 µM (inactive)	–	3.35 µM (inactive)	4.65 µM (inactive)
Cc1cc(C)c(/N=N/c2c(O)c(S(=O)(=O)O)cc3cc(S(=O)(=O)O)ccc23)cc1C	> 100 µM (inactive)	> 100 µM (inactive)	> 100 µM (inactive)	> 100 µM (inactive)	> 100 µM (inactive)	> 100 µM (inactive)	> 100 µM (inactive)	> 100 µM (inactive)	> 100 µM (inactive)	> 100 µM (inactive)	> 100 µM (inactive)	> 100 µM (inactive)	> 100 µM (inactive)	–	> 100 µM (inactive)	–	> 100 µM (inactive)	> 100 µM (inactive)	> 100 µM (inactive)	> 100 µM (inactive)
NC(=O)C(=CN1C(=O)CC(=O)NC1=S)C(N)=O	> 100 µM (inactive)	> 100 µM (inactive)	> 100 µM (inactive)	> 100 µM (inactive)	> 100 µM (inactive)	> 100 µM (inactive)	> 100 µM (inactive)	–	> 100 µM (inactive)	> 100 µM (inactive)	> 100 µM (inactive)	> 100 µM (inactive)	> 100 µM (inactive)	> 100 µM (inactive)	–	–	–	–	–	–
